Like-named read-outs stand apart in the source and are kept apart here. Values belong to the molecule of their own block, whether it stands above or below them.
Legend:
[1] = tested on: T1, G6PD-L-6PGL (fusion with linker); conditions: read-out: G6PD-L-6PGL, 100 mM Tris-HCl pH 8.0, 10 mM MgCl2, 25 °C, G6PD domain
T1 construct: gene ZWF1

[2] = tested on: T2, G6PD-6PGL (linker-less fusion); conditions: read-out: G6PD-6PGL, 100 mM Tris-HCl pH 8.0, 10 mM MgCl2, 25 °C, G6PD domain
T2 construct: gene ZWF1

purified protein = substrate: NC(=O)c1ccc[n+]([C@@H]2O[C@H](COP(=O)(O)OP(=O)(O)OC[C@H]3O[C@@H](n4cnc5c(N)ncnc54)[C@H](OP(=O)(O)O)[C@@H]3O)[C@@H](O)[C@H]2O)c1; assay: purified protein; conditions: G6P held constant, 100 mM Tris-HCl pH 8.0, 10 mM MgCl2, 25 °C

Km ([1]; NADP+ held constant): 2.3 ± 0.2 µM | Km ([2]; NADP+ held constant): 0.6 µM
Molecule: O=P(O)(O)OC[C@H]1OC(O)[C@H](O)[C@@H](O)[C@@H]1O (stereo partly drawn) [glucose 6‐phosphate]

Km ([1]; G6P held constant): 5.6 ± 0.2 µM | Km ([2]; G6P held constant): 2.6 ± 0.4 µM
Molecule: NC(=O)c1ccc[n+]([C@@H]2O[C@H](COP(=O)(O)OP(=O)(O)OC[C@H]3O[C@@H](n4cnc5c(N)ncnc54)[C@H](OP(=O)(O)O)[C@@H]3O)[C@@H](O)[C@H]2O)c1 [NADP^+]

Further lines, the molecule ahead of its results:

B1: ScG6PD (G6PD, ZWF1) (Saccharomyces cerevisiae S288C) (protein)
chain: MSEGPVKFEKNTVISVFGASGDLAKKKTFPALFGLFREGYLDPSTKIFGYARSKLSMEEDLKSRVLPHLKKPHGEADDSKVEQFFKMVSYISGNYDTDEGFDELRTQIEKFEKSANVDVPHRLFYLALPPSVFLTVAKQIKSRVYAENGITRVIVEKPFGHDLASARELQKNLGPLFKEEELYRIDHYLGKELVKNLLVLRFGNQFLNASWNRDNIQSVQISFKERFGTEGRGGYFDSIGIIRDVMQNHLLQIMTLLTMERPVSFDPESIRDEKVKVLKAVAPIDTDDVLLGQYGKSEDGSKPAYVDDDTVDKDSKCVTFAAMTFNIENERWEGVPIMMRAGKALNESKVEIRLQYKAVASGVFKDIPNNELVIRVQPDAAVYLKFNAKTPGLSNATQVTDLNLTYASRYQDFWIPEAYEVLIRDALLGDHSNFVRDDELDISWGIFTPLLKHIERPDGPTPEIYPYGSRGPKGLKEYMQKHKYVMPEKHPYAWPVTKPEDTKDN
Km (purified protein): 0.6 ± 0.1 µM

B2: ScG6PD (G6PD, ZWF1) (Saccharomyces cerevisiae S288C; N403D) (protein)
chain: MSEGPVKFEKNTVISVFGASGDLAKKKTFPALFGLFREGYLDPSTKIFGYARSKLSMEEDLKSRVLPHLKKPHGEADDSKVEQFFKMVSYISGNYDTDEGFDELRTQIEKFEKSANVDVPHRLFYLALPPSVFLTVAKQIKSRVYAENGITRVIVEKPFGHDLASARELQKNLGPLFKEEELYRIDHYLGKELVKNLLVLRFGNQFLNASWNRDNIQSVQISFKERFGTEGRGGYFDSIGIIRDVMQNHLLQIMTLLTMERPVSFDPESIRDEKVKVLKAVAPIDTDDVLLGQYGKSEDGSKPAYVDDDTVDKDSKCVTFAAMTFNIENERWEGVPIMMRAGKALNESKVEIRLQYKAVASGVFKDIPNNELVIRVQPDAAVYLKFNAKTPGLSNATQVTDLDLTYASRYQDFWIPEAYEVLIRDALLGDHSNFVRDDELDISWGIFTPLLKHIERPDGPTPEIYPYGSRGPKGLKEYMQKHKYVMPEKHPYAWPVTKPEDTKDN
Km (purified protein): 0.8 ± 0.1 µM
